Assay results: PubChem BioAssay AID504471 (NMMLSC, 2011)

Target: Retrograde regulation protein 3 (Saccharomyces cerevisiae (strain ATCC 204508 / S288c)) (UniProt P38165)
Assay: Rtg3-GFP nuclear translocation in yeast, SAR follow-up, yeast TOR pathway modulator project, imaging, fluorescence microscopy, S288c (AID 504471)
Settings: S. cerevisiae Rtg3-GFP, nuclear translocation by microscopy; at 30 µM; active compounds read high

nuclear translocation (1=yes, 0=no)	Structure (SMILES)
1	CNc1nc(N)c([N+](=O)[O-])c(Nc2cccc(Cl)c2)n1
1	CO[C@H]1C[C@@H]2CC[C@@H](C)[C@@](O)(O2)C(=O)C(=O)N2CCCC[C@H]2C(=O)O[C@H]([C@H](C)C[C@@H]2CC[C@@H](O)[C@H](OC)C2)CC(=O)[C@H](C)/C=C(\C)[C@@H](O)[C@@H](OC)C(=O)[C@H](C)C[C@H](C)/C=C/C=C/C=C/1C
1	CNc1nc(N)c([N+](=O)[O-])c(Nc2cccc(F)c2)n1
1	CNc1nc(N)c([N+](=O)[O-])c(Nc2ccccc2)n1
